This test has as its target CDK2 (human) (UniProt P24941). Description: Cell-Based Assay.

For `N#Cc1ccc2c(c1)C(c1ccccc1F)=Nc1c[nH]nc1N2`, the IC50 was 1100 to 9990 nM (hct 116), 1100 to 9990 nM (mda-mb-435) and 1100 to 9990 nM (sw480).

As to `Cc1[nH]nc2c1N=C(c1ccccc1Cl)c1cc([N+](=O)[O-])ccc1N2`, the IC50 is 10 to 1000 nM (hct 116), 10 to 1000 nM (mda-mb-435) and 10 to 1000 nM (sw480).

In turn, `Cc1[nH]nc2c1N=C(c1ccccc1Cl)c1ccccc1N2` returned a half-inhibitory concentration (IC50) (mda-mb-435) of 1100 to 9990 nM and an IC50 (sw480) of 1100 to 9990 nM.

Take `Cc1[nH]nc2c1N=C(c1ccccc1Cl)c1cc(Cl)ccc1N2`: the IC50 by setting is: (mda-mb-435) 1100 to 9990 nM; (sw480) 1100 to 9990 nM.

As for `Cc1[nH]nc2c1N=C(c1ccccc1F)c1cc(C(=O)NCCO)ccc1N2`, the IC50 lay within 1100 to 9990 nM (mda-mb-435) and 10 to 1000 nM (sw480).

For the compound `Cc1[nH]nc2c1N=C(c1ccccc1)c1cc(Br)ccc1N2`, the IC50 (sw480) was in the range of 10000 to 30000 nM.

In the case of `CCCc1[nH]nc2c1N=C(c1ccccc1Cl)c1cc([N+](=O)[O-])ccc1N2`, the IC50 is 10000 to 30000 nM (hct 116), 10000 to 30000 nM (mda-mb-435) and 10000 to 30000 nM (sw480).

On to `Clc1ccccc1C1=Nc2c[nH]nc2Nc2ccccc21`, for which the IC50 by setting is: (hct 116) 10000 to 30000 nM; (sw480) 10000 to 30000 nM.

`Cc1cn[nH]c1-c1[nH]nc2c1N=C(c1ccccc1Cl)c1cc([N+](=O)[O-])ccc1N2` gave an IC50 (hct 116) of 1100 to 9990 nM, an IC50 (mda-mb-435) of 1100 to 9990 nM and an IC50 (sw480) of 10 to 1000 nM.

`O=[N+]([O-])c1ccc2c(c1)C(c1ccccc1Cl)=Nc1c(n[nH]c1-c1cncc3ccccc13)N2`: the IC50 (hct 116) lay within 10000 to 30000 nM.

With `C=CC(=O)Nc1ccc2c(c1)C(c1ccccc1Cl)=Nc1c(n[nH]c1C)N2`, the IC50 was in the range of 10 to 1000 nM (mda-mb-435) and 10 to 1000 nM (sw480).

As to `O=[N+]([O-])c1ccc2c(c1)C(c1ccccc1Cl)=Nc1c(n[nH]c1-c1ccccc1)N2`, the IC50 lay within 10000 to 30000 nM (hct 116) and 10000 to 30000 nM (sw480).

With `NC(=O)c1ccc2c(c1)C(c1ccccc1F)=Nc1c[nH]nc1N2`, the IC50 by setting is: (hct 116) 1100 to 9990 nM; (sw480) 1100 to 9990 nM.

`NNC(=O)c1[nH]nc2c1N=C(c1ccccc1Cl)c1cc([N+](=O)[O-])ccc1N2`: the IC50 lay within 1100 to 9990 nM (hct 116) and 10000 to 30000 nM (sw480).

As for `O=[N+]([O-])c1ccc2c(c1)C(c1ccccc1Cl)=Nc1c(n[nH]c1C1CC1)N2`, the IC50 reads like this: (hct 116) 1100 to 9990 nM; (mda-mb-435) 10 to 1000 nM; (sw480) 1100 to 9990 nM.

With `Cc1[nH]nc2c1N=C(c1ccccc1F)c1cc(C(=O)NCCN3CCOCC3)ccc1N2`, the IC50 is, setting by setting: (mda-mb-435) 1100 to 9990 nM; (sw480) 10 to 1000 nM.

Consider `Cc1[nH]nc2c1N=C(c1ccccc1)c1cc([N+](=O)[O-])ccc1N2`, for which the IC50 runs as follows: (mda-mb-435) 10 to 1000 nM; (sw480) 10 to 1000 nM.

For the setting “mda-mb-435”, `O=[N+]([O-])c1ccc2c(c1)C(c1ccccc1Cl)=Nc1c(n[nH]c1-c1cc[nH]n1)N2` came in with an IC50 of 1100 to 9990 nM.

In turn, `O=Cc1[nH]nc2c1N=C(c1ccccc1Cl)c1cc([N+](=O)[O-])ccc1N2` had an IC50 (mda-mb-435) of 10 to 1000 nM.

For the setting “hct 116”, `O=[N+]([O-])c1ccc2c(c1)C(c1ccccc1)=Nc1c[nH]nc1N2` gave an IC50 of 10000 to 30000 nM.

Where the note is “sw480”, `Cc1[nH]nc2c1N=C(c1ccccc1F)c1cc(C(N)=O)ccc1N2` showed a 50% inhibitory concentration (IC50) of 10 to 1000 nM.

Regarding `Cc1[nH]nc2c1N=C(c1ccccc1Cl)c1cc(NS(=O)(=O)NCCl)ccc1N2`, the IC50 by setting is: (mda-mb-435) 1100 to 9990 nM; (sw480) 1100 to 9990 nM.

For the compound `N#Cc1ccc2c(c1)C(c1ccccc1F)=Nc1c(n[nH]c1CO)N2`, the IC50 reads like this: (mda-mb-435) 10 to 1000 nM; (sw480) 10 to 1000 nM.

`CC(=O)Nc1ccc2c(c1)C(c1ccccc1Cl)=Nc1c(n[nH]c1C)N2` gave an IC50 (mda-mb-435) of 10 to 1000 nM and an IC50 (sw480) of 10 to 1000 nM.

For the compound `COc1ccc2c(c1)C(c1ccccc1Cl)=Nc1c(n[nH]c1C)N2`, the 50% inhibitory concentration (IC50) (mda-mb-435) fell in the range of 1100 to 9990 nM and the IC50 (sw480) was 1100 to 9990 nM.

In turn, `O=[N+]([O-])c1ccc2c(c1)C(c1ccccc1Cl)=Nc1c(n[nH]c1-c1ccco1)N2` showed an IC50 (hct 116) of 10000 to 30000 nM and an IC50 (sw480) of 10000 to 30000 nM.

Consider `Cc1[nH]nc2c1N=C(c1ccccc1C(F)(F)F)c1cc([N+](=O)[O-])ccc1N2`, for which the IC50 (sw480) is 10 to 1000 nM.

The compound `CSc1ccc(-c2[nH]nc3c2N=C(c2ccccc2Cl)c2cc([N+](=O)[O-])ccc2N3)cc1` had a half-inhibitory concentration (IC50) (hct 116) of 10000 to 30000 nM.

Where the note is “mda-mb-435”, `O=[N+]([O-])c1ccc2c(c1)C(c1ccccc1Cl)=Nc1c(n[nH]c1-c1nccs1)N2` returned an IC50 of 10000 to 30000 nM.

As to `O=[N+]([O-])c1ccc2c(c1)C(c1ccccc1)=Nc1c(n[nH]c1C1CC1)N2`, for the setting “hct 116”, the IC50 was in the range of 10000 to 30000 nM.

`N#Cc1[nH]nc2c1N=C(c1ccccc1Cl)c1cc([N+](=O)[O-])ccc1N2` gave an IC50 (mda-mb-435) of 10000 to 30000 nM.

For `Cc1[nH]nc2c1N=C(c1ccccc1F)c1cc(Cl)ccc1N2`, for the setting “sw480”, the IC50 is 1100 to 9990 nM.

As to `Cc1[nH]nc2c1N=C(c1ccccc1F)c1cc(C(=O)N3CCOCC3)ccc1N2`, the IC50 is 1100 to 9990 nM (mda-mb-435) and 10 to 1000 nM (sw480).

The compound `O=[N+]([O-])c1ccc2c(c1)C(c1ccccc1Cl)=Nc1c(n[nH]c1-c1c[nH]cn1)N2` had an IC50 (mda-mb-435) of 1100 to 9990 nM.

In turn, `O=C(NCCO)c1ccc2c(c1)C(c1ccccc1F)=Nc1c[nH]nc1N2` showed an IC50 (hct 116) of 10000 to 30000 nM.

For `O=[N+]([O-])c1ccc2c(c1)C(c1ccccc1Cl)=Nc1c(n[nH]c1-c1cccc3ccccc13)N2`, the IC50 runs as follows: (hct 116) 10000 to 30000 nM; (sw480) 10000 to 30000 nM.

`Cc1[nH]nc2c1N=C(c1ccccc1Cl)c1cc(NS(=O)(=O)N(C)C)ccc1N2`: the IC50 is 10 to 1000 nM (mda-mb-435) and 1100 to 9990 nM (sw480).

For the compound `Cc1[nH]nc2c1N=C(c1ccccc1)c1cc(Cl)ccc1N2`, the IC50 lay in the range of 1100 to 9990 nM (mda-mb-435) and 1100 to 9990 nM (sw480).

Regarding `CCc1[nH]nc2c1N=C(c1ccccc1Cl)c1cc([N+](=O)[O-])ccc1N2`, the IC50 was 10 to 1000 nM (hct 116), 10 to 1000 nM (mda-mb-435) and 10 to 1000 nM (sw480).

Compound `CC(C)c1[nH]nc2c1N=C(c1ccccc1Cl)c1cc(N)ccc1N2` came in with a half-inhibitory concentration (IC50) (mda-mb-435) of 1100 to 9990 nM.

`O=C(c1ccc2c(c1)C(c1ccccc1F)=Nc1c[nH]nc1N2)N1CCOCC1`: the IC50 by setting is: (hct 116) 10000 to 30000 nM; (sw480) 10 to 1000 nM.

Turning to `O=[N+]([O-])c1ccc2c(c1)C(c1ccccc1Cl)=Nc1c(n[nH]c1-c1ccc[nH]1)N2`, the half-maximal inhibitory concentration (IC50) was in the range of 1100 to 9990 nM (hct 116) and 1100 to 9990 nM (sw480).

`Cc1[nH]nc2c1N=C(c1ccccc1Cl)c1cc(NS(=O)(=O)N3CCOCC3)ccc1N2`: the IC50 was 1100 to 9990 nM (mda-mb-435) and 1100 to 9990 nM (sw480).

On to `CC(C)c1[nH]nc2c1N=C(c1ccccc1Cl)c1cc([N+](=O)[O-])ccc1N2`, for which the IC50 lay within 1100 to 9990 nM (hct 116), 10 to 1000 nM (mda-mb-435) and 10 to 1000 nM (sw480).

With `Cc1[nH]nc2c1N=C(c1ccccc1Cl)c1cc(NS(C)(=O)=O)ccc1N2`, the IC50 runs as follows: (mda-mb-435) 10 to 1000 nM; (sw480) 10 to 1000 nM.

Under “hct 116”, `O=[N+]([O-])c1ccc2c(c1)C(c1ccccc1Cl)=Nc1c(n[nH]c1-c1ccc(OC(F)(F)F)cc1)N2` displayed an IC50 of 10000 to 30000 nM.

`O=[N+]([O-])c1ccc2c(c1)C(c1ccccc1Cl)=Nc1c(n[nH]c1-c1cccnc1)N2`: the IC50 runs as follows: (hct 116) 10000 to 30000 nM; (sw480) 10000 to 30000 nM.

In the case of `O=[N+]([O-])c1ccc2c(c1)C(c1ccccc1Cl)=Nc1c(n[nH]c1CO)N2`, the IC50 by setting is: (mda-mb-435) 10 to 1000 nM; (sw480) 10 to 1000 nM.

As to `COc1cc(O)ccc1-c1[nH]nc2c1N=C(c1ccccc1Cl)c1cc([N+](=O)[O-])ccc1N2`, the IC50 (hct 116) was 10000 to 30000 nM.

With `O=[N+]([O-])c1ccc2c(c1)C(c1ccccc1Cl)=Nc1c(n[nH]c1-c1ccncc1)N2`, the IC50 was 10000 to 30000 nM (hct 116) and 10000 to 30000 nM (sw480).

These data come from the Kinase Knowledgebase extract (Sharma et al. 2016).
